Measured values: patent US12187717B2, “Compound and use thereof in treating autoimmune diseases” (PARENCHYMA BIOTECH INC., priority 2022, dated 2025)
Read-outs that look alike come from different tables or passages of the source.

What was measured:
[1] = tested on: colitis-associated colorectal cancer (CA-CRC); assay: AOM/DSS colorectal cancer model, therapeutic administration; assay type: in vivo, C57BL/6 mice; details: 10 mg/kg oral, 50th to 63rd days (treatment)
Procedure: AOM (Sigma Aldrich, Cat No. A5486) was diluted with physiological saline so as to be a concentration of 10 mg/kg, and then administered intraperitoneally to C57BL/6 mice (8 weeks old, female, 18±2 g) by […] for a total of 3 times at an interval of 7 days (Experiment day 0, 7, 14th). On the 7th day of the experiment, a 1.5% DSS solution prepared by dissolving 1.5% DSS in sterile distilled water was given for drinking to the mice for 7 days. Further, the 1.5% DSS solution was changed at an interval of 2 days. Sterile distilled water was provided for drinking from the 8th day of the experiment. In the compound 6 administration group according to an embodiment of the present invention, 10 mg/kg of Compound 6 per mouse was completely dissolved in an ethanol-Cremophor EL mixture corresponding to 7.5% (v/v) of the administered dose, and then, was diluted in phosphate buffered saline to prepare the final ethanol:Cremophor EL:phosphate buffered saline (0.375:0.375:9.25, v/v/v), followed by oral administration with 200 μl of the prepared solution. In order to confirm the preventive effect, Compound 6 was administered for a total of 14 times from the 7th to the 20th days of the experiment. The effects of Compound 6 according to an embodiment of the present invention on treating colon cancer was confirmed. From the 50th to the 63rd days of the experiment, DSS was administered on the 7th and 14th days after AOM administration to the mice to induce colon cancer, and Compound 6 was administered 14 times from the 50th to the 63rd days. […] That is, it was confirmed that Compound 6 was effective in treating colon cancer (FIGS. 13 and 14). Therefore, it was confirmed that Compound 6 can be used as an effective preventive and therapeutic agent for colon cancer.

CYP2C9 = CYP2C9 (Homo sapiens, UniProt P11712); assay: CYP isoenzyme activity; assay type: in vitro ADME; details: 10 μM
CYP2C9, sequence (P11712 whole entry): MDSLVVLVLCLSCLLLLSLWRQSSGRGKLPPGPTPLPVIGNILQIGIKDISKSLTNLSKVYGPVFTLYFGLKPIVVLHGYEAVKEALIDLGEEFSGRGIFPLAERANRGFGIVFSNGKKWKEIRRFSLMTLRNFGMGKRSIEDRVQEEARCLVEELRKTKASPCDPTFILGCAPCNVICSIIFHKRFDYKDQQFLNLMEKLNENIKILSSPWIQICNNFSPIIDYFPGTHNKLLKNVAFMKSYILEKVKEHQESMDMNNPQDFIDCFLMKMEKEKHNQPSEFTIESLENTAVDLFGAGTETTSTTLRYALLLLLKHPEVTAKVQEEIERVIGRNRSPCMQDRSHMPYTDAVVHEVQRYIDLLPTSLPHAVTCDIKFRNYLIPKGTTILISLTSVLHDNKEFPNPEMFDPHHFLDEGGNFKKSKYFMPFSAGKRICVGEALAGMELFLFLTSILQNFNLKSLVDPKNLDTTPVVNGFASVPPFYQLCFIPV

[2] = Pharmacokinetic parameters after oral or intravenous administration; assay type: in vivo; details: rats; for bioavailability: read-out: Bioavailability (F %); for increase of AUClast compared to Comparative Example 1 / increase of Cmax compared to Comparative Example 1: oral
Procedure: For rats, an oral administration group was fasted for 16 hours, and an intravenous administration group was subjected to intravenous administration with 10 mL/kg of solution prepared by completely dissolving Compound 6 in an ethanol-Cremophor EL mixture corresponding to 7.5% (v/v) of the administered dose, and then diluting in phosphate buffered saline so as to be the final ethanol:Cremophor EL:phosphate buffered saline (0.375:0.375:9.25, v/v/v), without fasting, at the dose concentration listed in Table 3. The oral administration group was supplied with food about 4 hours after administration. Blood collection was performed on the intravenous administration group after 0.083, 0.5, 1, 2, 4, 8, 24 hours from the administration and on the oral administration group after 0.5, 1, 2, 4, 8, 12, 24 hours from the administration, and plasma was recovered using centrifugation. In the recovered plasma, the drug concentration in the plasma was measured using UHPLC-MS/MS method.

CYP1A1 = assay: Induction of CYP1A1 protein expression in HepG2 (7-ethoxyresorufin/resorufin); assay type: cell-based, Human; details: HepG2, 1 μM, 24 hours, vs control (vehicle)
Procedure: After recovering HepG2 under culture in DMEM-fetal bovine serum (FBS) 10% medium and then confirming that the survival rate is 97% or more through trypan blue staining, the recovered product was centrifuged at a speed of 1200 rpm for 5 minutes at room temperature, and the cells were prepared by resuspending them in DMEM-fetal calf serum 10% medium at 1.5×10^5 cells/ml.
Thereafter, the cells were dispensed onto a 96-well plate by 200 μl, and each plate was treated with 3 μl of Compounds 6, 21, 32 and 39 at a concentration of 1 μM diluted in DMEM medium, and then cultured in a cell incubator (5% CO2 incubator) for 24 hours. As a control, 3 μl of 0.05% dimethylsulfoxide (DMSO)/DMEM medium was used for treatment.
After 24 hours, the medium of the plate was discarded, washed with dPBS, treated with 100 μl of 2 μM 7-ethoxyresorufin, and cultured in a cell incubator (5% CO2 incubator) for 30 minutes. After 30 minutes, each 75 μl of fluorescamine (150 μg/ml) was treated, then resorufine excitation was measured at 535 nm and emission at 590 nm. The standard curve was measured and used with 0 to 50 pmol of resorufin solution.
After measurement, all solutions were removed, followed by treating the same with 25 μl of 0.5 M sodium hydroxide (NaOH), the cells were scraped and reacted in a shaker at room temperature for 15 minutes.
After 15 minutes, protein was quantified using a Bradford method, and a value was obtained using a calculation formula (sample resorufin amount/sample protein amount), and then one (1) fold was set using the control.

[3] = pH-metric solubility and logP (SIRIUS T3); assay type: physicochemical
Procedure: After dissolving Compound 6 in ethanol, the solubility was measured and analyzed using a SIRIUS T3 machine.

[4] = rat, plasma, Intravenous (IV), 1 mg/kg
[5] = rat, plasma, Oral (PO), 10 mg/kg
[6] = rat, plasma, Oral (PO), 50 mg/kg
[7] = Oral (PO), 10 mg/kg (reference dose, dose ratio 1)
[8] = Oral (PO), 50 mg/kg relative to 10 mg/kg (dose ratio 5)
[9] = 10 mg/kg vs Comparative Example 1 at 10 mg/kg
[10] = 50 mg/kg vs Comparative Example 1 at 100 mg/kg

With `O=C(Cc1c[nH]c2ccc(Cl)cc12)Nc1nc2ccc(N3CCOCC3)cc2s1` [Compound 6, 2-(5-chloro-1H-indol-3-yl)-N-(6-morpholinobenzo[d]thiazol-2-yl)acetamide] the body weight ([1]; after 70 days) was “increase in the body weight similar to that of normal mice”, the number of tumors ([1]; vs control) was “significantly smaller” and the size of tumors ([1]; vs control) was “significantly smaller”. The CYP2C9 activity (CYP2C9) was 94.5 % of Control Activity, the AUC(0-t) [2, 4] was 1160 ng·h/mL and the C0 [2, 4] was 1420 ng/mL. For the same compound, the clearance [2, 4] was 14.4 mL/min/kg, the half-life [2, 4] was 1.04 h and the Vd ([2]; rat, plasma, Intravenous (IV), 1 mg/kg, read-out: Vdss) was 0.924 L/kg. For the same compound, the AUC(0-t) [2, 5] was 4350 ng·h/mL, the Cmax [2, 5] was 742 ng/mL and the Tmax [2, 5] was 2 h. The half-life [2, 5] was 2 h, the bioavailability [2, 5] was 37.3% and the AUC(0-t) [2, 6] was 43100 ng·h/mL. For the same compound, the Cmax [2, 6] was 4590 ng/mL, the Tmax [2, 6] was 4 h and the half-life [2, 6] was 3.83 h. For the same compound, the bioavailability [2, 6] was 73.9%, the “AUClast Ratio” value [2, 7] was 1.0 and the Cmax ratio [2, 7] was 1.0. The “AUClast Ratio” value [2, 8] was 9.9, the Cmax ratio [2, 8] was 6.2 and the “increase of AUClast compared to Comparative Example 1” value [2, 9] was 5.9 times. The “increase of Cmax compared to Comparative Example 1” value [2, 9] was 11.9 times, the “increase of AUClast compared to Comparative Example 1” value [2, 10] was 66.8 times and the “increase of Cmax compared to Comparative Example 1” value [2, 10] was 30.2 times. The “CYP1A1 protein expression level” value (CYP1A1) was “significantly higher”, the “pH-metric solubility molarity relative to Comparative Example 1” value ([3]; Compound 6 vs Comparative Example 1) was “about 3.92 times” and the logP ([3]; pH-metric results, SIRIUS T3) was 3.04. For the same compound, the “pH-metric solubility, Molarity” value ([3]; pH-metric results, SIRIUS T3) was 14.3 μM and the “pH-metric solubility, Weight/ml” value ([3]; pH-metric results, SIRIUS T3) was 6.104 μg/ml.
